Reference: PMC6857076 (Pharmacology Research & Perspectives, 2019)
Like-named read-outs stand apart in the source and are kept apart here.

Columns and labels:
[1] = test system: CRP; conditions: RA; filgotinib 200 mg QD; cited from earlier work
[2] = test system: IFNα cytokine receptor (JAK1/TYK2); assay: Human whole blood, IFNα-induced pSTAT3, lymphocytes; type: cell-based; conditions: Lymphocyte
Description: Blood was warmed to 37°C prior to use.
(§1) Then, 5 µL of PBS or cytokine was added to each well (5 µL/well; final, 10 U/mL EPO, 100 ng/mL G‐CSF, 10 ng/mL GM‐CSF, 5000 U/mL IFNα, 100 ng/mL IFNγ, 50 ng/mL IL‐2, 50 ng/mL IL‐3, 5 ng/mL IL‐4, 50 ng/mL IL‐6, 30 ng/mL IL‐7, 30 ng/mL IL‐10, 30 ng/mL IL‐12, 30 ng/mL IL‐13, 30 ng/mL IL‐15, 50 ng/mL IL‐21, 25 ng/mL IL‐23, 1000 ng/mL IL‐27) and incubated for 15 minutes. Anti‐cell surface antibodies were added 15 minutes prior to cytokine stimulation; anti‐CD14‐Pacific Blue (0.5 µL/well) to GM‐CSF, IFNγ, and TPO‐treated samples; anti‐CD3‐BV650 (0.5 µL/well) plus anti‐CD14‐Pacific Blue (0.5 µL/well) to IL‐6‐treated samples; and anti‐CD19‐BV421 (0.5 µL/well) plus anti‐CD14‐AF488 (0.5 µL/well) to IL‐13‐treated samples.
(§2) One more wash was done with staining buffer and all samples were finally suspended in 150 µL/well of the desired anti‐pSTAT antibodies at 1:150 dilution in staining buffer; anti‐pSTAT1‐AF647 in IFNγ‐treated samples; anti‐pSTAT1‐AF488 and anti‐pSTAT3‐AF647 in IFNα‐, IL‐6‐, and IL‐27‐treated samples; anti‐pSTAT3‐AF647 in G‐CSF‐, IL‐10‐, IL‐21‐, and IL‐23‐treated samples; anti‐pSTAT4‐AF647 in IL‐12‐treated samples; anti‐pSTAT5‐AF647 in EPO‐, GM‐CSF‐, IL‐2‐, IL‐3‐, IL‐7‐, IL‐15‐, and TPO‐treated samples; anti‐pSTAT5‐AF488 and anti‐pSTAT6‐AF647 in IL‐4‐treated samples; and anti‐pSTAT6‐AF647 in IL‐13‐treated samples.
(§3) The lymphocyte population was gated for pSTAT histogram analysis for IFNα‐, IL‐2‐, IL‐3‐, IL‐4‐, IL‐7‐, IL‐10‐, IL‐12‐, IL‐15‐, IL‐21‐, IL‐23‐, and IL‐27‐treated samples; granulocyte population for G‐CSF‐treated samples; CD14^+ cells for GM‐CSF‐, IFNγ‐, and TPO‐treated samples; CD3^+ cells and CD14^+ cells for IL‐6‐treated samples; CD14^+ cells and CD19^+ cells for IL‐13‐treated samples; all events (entire populations) for EPO‐treated cells. Background fluorescence was defined using unstimulated cells and a gate was placed at the foot of the peak to include ~0.5% gated population.
(§4) Histogram statistical analysis was performed using FACSDiva version 8.0.1 (BD Biosciences). Relative fluorescence unit (RFU), which measures the level of pSTAT, was calculated by multiplying the percent positive population and its mean fluorescence. Data from 11 compound concentrations (singlicate at each concentration) were normalized as a percentage of control, as shown in Equation 1:(1) %ofcontrol=100×A−B/C−B
(§5) A, RFU from wells containing compound and cytokine; B, RFU from wells without cytokine (minimum fluorescence); C, RFU from wells containing only cytokine (maximum fluorescence).
(§6) Inhibition curves and IC50 values were determined using Prism software (Version 7, GraphPad).

[3] = human; filgotinib 200 mg QD; cited from earlier work
[4] = test system: IL-27 cytokine receptor (JAK1/JAK2, JAK1/TYK2); assay: Human whole blood, IL-27-induced pSTAT3, lymphocytes; type: cell-based; conditions: Lymphocyte
Description: Blood was warmed to 37°C prior to use.
as §1, §2, §3, §4, §5, §6

[5] = test system: IFNγ cytokine receptor (JAK1/JAK2); assay: Human whole blood, IFNγ-induced pSTAT1, CD14+ cells; type: cell-based; conditions: for IC50: Homo sapiens
Description: Blood was warmed to 37°C prior to use.
as §1, §2, §3, §4, §5, §6

[6] = test system: IL-27 cytokine receptor (JAK1/JAK2, JAK1/TYK2); assay: Human whole blood, IL-27-induced pSTAT1, lymphocytes; type: cell-based; conditions: Lymphocyte
Description: Blood was warmed to 37°C prior to use.
(§7) Anti‐cell surface antibodies were added 15 minutes prior to cytokine stimulation; anti‐CD14‐Pacific Blue (0.5 µL/well) to GM‐CSF, IFNγ, and TPO‐treated samples; anti‐CD3‐BV650 (0.5 µL/well) plus anti‐CD14‐Pacific Blue (0.5 µL/well) to IL‐6‐treated samples; and anti‐CD19‐BV421 (0.5 µL/well) plus anti‐CD14‐AF488 (0.5 µL/well) to IL‐13‐treated samples.
as §3, §4, §5, §6

[7] = test system: GM-CSF cytokine receptor (JAK2/JAK2); assay: Human whole blood, GM-CSF-induced pSTAT5, CD14+ cells; type: cell-based
Description: Blood was warmed to 37°C prior to use.
as §1, §2, §3, §4, §5, §6

[8] = test system: IL-2 cytokine receptor (JAK1/JAK3); assay: Human whole blood, IL-2-induced pSTAT5, lymphocytes; type: cell-based; conditions: Lymphocyte
Description: Blood was warmed to 37°C prior to use.
as §1, §2, §3, §4, §5, §6

[9] = test system: IL-4 cytokine receptor (JAK1/JAK3); assay: Human whole blood, IL-4-induced pSTAT6, lymphocytes; type: cell-based; conditions: Lymphocyte
Description: Blood was warmed to 37°C prior to use.
as §1, §2, §3, §4, §5, §6

[10] = in vitro; conditions: both, human, pooled human plasma
[11] = test system: IL-3 cytokine receptor (JAK2/JAK2); assay: Human whole blood, IL-3-induced pSTAT5, lymphocytes; type: cell-based
Description: Blood was warmed to 37°C prior to use.
as §1, §2, §3, §4, §5, §6

[12] = test system: IL-6 cytokine receptor (JAK1/JAK2, JAK1/TYK2); assay: Human whole blood, IL-6-induced pSTAT1, CD14+ cells; type: cell-based
Description: Blood was warmed to 37°C prior to use.
as §7, §3, §4, §5, §6

[13] = test system: IL-6 cytokine receptor (JAK1/JAK2, JAK1/TYK2); assay: Human whole blood, IL-6-induced pSTAT3, CD3+ cells; type: cell-based
Description: Blood was warmed to 37°C prior to use.
as §7, §3, §4, §5, §6

[14] = test system: IFNα cytokine receptor (JAK1/TYK2); assay: Human whole blood, IFNα-induced pSTAT1, lymphocytes; type: cell-based; conditions: for IC50: Homo sapiens, Lymphocyte
Description: Blood was warmed to 37°C prior to use.
as §1, §2, §3, §4, §5, §6

[15] = test system: IL-21 cytokine receptor (JAK1/JAK3); assay: Human whole blood, IL-21-induced pSTAT3, lymphocytes; type: cell-based; conditions: Lymphocyte
Description: Blood was warmed to 37°C prior to use.
as §1, §2, §3, §4, §5, §6

[16] = test system: IL-15 cytokine receptor (JAK1/JAK3); assay: Human whole blood, IL-15-induced pSTAT5, lymphocytes; type: cell-based; conditions: for IC50: Homo sapiens, Lymphocyte
Description: Blood was warmed to 37°C prior to use.
as §1, §2, §3, §4, §5, §6

[17] = test system: IL-10 cytokine receptor (JAK1/TYK2); assay: Human whole blood, IL-10-induced pSTAT3, lymphocytes; type: cell-based; conditions: Lymphocyte
Description: Blood was warmed to 37°C prior to use.
as §1, §2, §3, §4, §5, §6

[18] = test system: TPO cytokine receptor (JAK2/JAK2); assay: Human whole blood, TPO-induced pSTAT5, CD14+ cells; type: cell-based
Description: Blood was warmed to 37°C prior to use.
as §1, §2, §3, §4, §5, §6

[19] = test system: IL-12 cytokine receptor (JAK2/TYK2); assay: Human whole blood, IL-12-induced pSTAT4, lymphocytes; type: cell-based; conditions: for IC50: Homo sapiens, Lymphocyte
Description: Blood was warmed to 37°C prior to use.
as §1, §2, §3, §4, §5, §6

[20] = unbound, Cav × fu; filgotinib 200 mg QD
[21] = test system: EPO cytokine receptor (JAK2/JAK2); assay: Human whole blood spiked with CD34+-derived erythroid progenitor cells, EPO-induced pSTAT5; type: cell-based; conditions: for IC50: Erythroid progenitor cell, human whole blood
Description: CD34^+ cells were then harvested, washed once with Dulbecco's (D)‐PBS, and suspended at 0.5 x 10^6 cells/mL in human whole blood to be used in the EPO stimulation assay.
Blood was warmed to 37°C prior to use.
Background fluorescence was defined using unstimulated cells and a gate was placed at the foot of the peak to include ~0.5% gated population.
as §4, §5, §6

[22] = phase 3 RA studies; cited from earlier work
[23] = test system: IL-13 cytokine receptor (JAK1/JAK2, JAK1/TYK2); assay: Human whole blood, IL-13-induced pSTAT6, CD14+ cells; type: cell-based
Description: Blood was warmed to 37°C prior to use.
as §7, §3, §4, §5, §6

[24] = test system: IL-6 cytokine receptor (JAK1/JAK2, JAK1/TYK2); assay: Human whole blood, IL-6-induced pSTAT1, CD3+ cells; type: cell-based; conditions: for IC50: Homo sapiens
Description: Blood was warmed to 37°C prior to use.
as §1, §2, §3, §4, §5, §6

[25] = test system: IL-7 cytokine receptor (JAK1/JAK3); assay: Human whole blood, IL-7-induced pSTAT5, lymphocytes; type: cell-based; conditions: Lymphocyte
Description: Blood was warmed to 37°C prior to use.
as §1, §2, §3, §4, §5, §6

[26] = test system: IL-13 cytokine receptor (JAK1/JAK2, JAK1/TYK2); assay: Human whole blood, IL-13-induced pSTAT6, CD19+ cells; type: cell-based
Description: Blood was warmed to 37°C prior to use.
as §7, §3, §4, §5, §6

SMILES: O=C(Nc1nc2cccc(-c3ccc(CN4CCS(=O)(=O)CC4)cc3)n2n1)C1CC1 [Filgotinib]
- reduction of CRP levels from baseline to week 12 [1]: -14.9 mg/L
- IC50 ([2]; read-out: IC50, IFNα, pSTAT3): 1060 nM
- IC50 ([2]; read-out: IC50,u, IFNα, pSTAT3): 425 nM
- Cav [3]: 474 nM
- IC50 ([4]; read-out: IC50, IL-27, pSTAT3): 1160 nM
- IC50 ([4]; read-out: IC50,u, IL-27, pSTAT3): 468 nM
- LogIC50, IFNγ induced pSTAT1, single experiment [5]: -5.17 log[M]
- IC50 ([5]; read-out: IC50, IFNγ induced pSTAT1, single experiment): 6760 nM
- IC50 ([5]; read-out: IC50, IFNγ, pSTAT1): 6950 nM
- IC50 ([5]; read-out: IC50,u, IFNγ, pSTAT1): 2790 nM
- IC50 ([6]; read-out: IC50, IL-27, pSTAT1): 2110 nM
- IC50 ([6]; read-out: IC50,u, IL-27, pSTAT1): 848 nM
- IC50 ([7]; Homo sapiens, read-out: IC50, GM-CSF, pSTAT5): > 20000 nM
- IC50, GM-CSF, pSTAT5 ([7]; human whole blood, four donors, mean (SD), CD14+ cells, JAK2/JAK2, GM-CSF 10 ng/mL): not measurable
- IC50 ([8]; read-out: IC50, IL-2, pSTAT5): 2660 nM
- IC50 ([8]; read-out: IC50,u, IL-2, pSTAT5): 1070 nM
- IC50 ([9]; read-out: IC50, IL-4, pSTAT6): 3620 nM
- IC50 ([9]; read-out: IC50,u, IL-4, pSTAT6): 1460 nM
- fraction unbound at 6 h, 1 μmol/L [10]: 0.49
- IC50 ([11]; Homo sapiens, Lymphocyte, read-out: IC50, IL-3, pSTAT5): > 20000 nM
- IC50, IL-3, pSTAT5 ([11]; human whole blood, four donors, mean (SD), lymphocytes, JAK2/JAK2, IL-3 50 ng/mL): not measurable
- IC50 ([12]; read-out: IC50, IL-6, pSTAT1, CD14+ cells): 810 nM
- IC50 ([12]; read-out: IC50,u, IL-6, pSTAT1, CD14+ cells): 325 nM
- IC50 ([13]; read-out: IC50, IL-6, pSTAT3, CD3+ cells): 4940 nM
- IC50 ([13]; read-out: IC50,u, IL-6, pSTAT3, CD3+ cells): 1980 nM
- LogIC50, IFNα induced pSTAT1, single experiment ([14]; Figure S1B, Donor 256, Exp 1): -5.931 log[M]
- IC50 ([14]; read-out: IC50, IFNα induced pSTAT1, single experiment): 1170 nM
- IC50 ([14]; read-out: IC50, IFNα, pSTAT1): 1320 nM
- IC50 ([14]; read-out: IC50,u, IFNα, pSTAT1): 531 nM
- IC50 ([15]; read-out: IC50, IL-21, pSTAT3): 3980 nM
- IC50 ([15]; read-out: IC50,u, IL-21, pSTAT3): 1600 nM
- LogIC50, IL-15 induced pSTAT5, single experiment [16]: -5.526 log[M]
- IC50 ([16]; read-out: IC50, IL-15, pSTAT5): 3380 nM
- IC50 ([16]; read-out: IC50, IL-15 induced pSTAT5, single experiment): 2980 nM
- IC50 ([16]; read-out: IC50,u, IL-15, pSTAT5): 1360 nM
- IC50 ([17]; read-out: IC50, IL-10, pSTAT3): 2550 nM
- IC50 ([17]; read-out: IC50,u, IL-10, pSTAT3): 1020 nM
- IC50 ([18]; Homo sapiens, read-out: IC50, TPO, pSTAT5): > 17600 nM
- IC50, TPO, pSTAT5 ([18]; human whole blood, four donors, mean (SD), CD14+ cells, JAK2/JAK2): not measurable
- LogIC50, IL-12 induced pSTAT4, single experiment [19]: -5.125 log[M]
- IC50 ([19]; read-out: IC50, IL-12, pSTAT4): 8030 nM
- IC50 ([19]; read-out: IC50, IL-12 induced pSTAT4, single experiment): 7510 nM
- IC50 ([19]; read-out: IC50,u, IL-12, pSTAT4): 3220 nM
- Cav,u [20]: 232.0 nM
- IC50 ([21]; Figure S1F, Donor 573, Exp 1, one of four experiments, read-out: IC50, EPO induced pSTAT5, single experiment): 7580 nM
- IC50 ([21]; four donors, mean (SD), erythroid progenitor cells, JAK2/JAK2, EPO 10 U/mL, read-out: IC50, EPO, pSTAT5): 9900 nM
- IC50 ([21]; unbound (IC50/blood:plasma ratio × fu), erythroid progenitor cells, JAK2/JAK2, read-out: IC50,u, EPO, pSTAT5): 3970 nM
- LogIC50, EPO induced pSTAT5, single experiment ([21]; Figure S1F, Donor 573, Exp 1): -5.121 log[M]
- herpes zoster occurrence [22]: reported
- IC50 ([23]; read-out: IC50, IL-13, pSTAT6, CD14+ cells): 5140 nM
- IC50 ([23]; read-out: IC50,u, IL-13, pSTAT6, CD14+ cells): 2060 nM
- LogIC50, IL-6 induced pSTAT1 (CD3+ cells), single experiment [24]: -6.12 log[M]
- IC50 ([24]; read-out: IC50, IL-6, pSTAT1, CD3+ cells): 671 nM
- IC50 ([24]; read-out: IC50, IL-6 induced pSTAT1 (CD3+ cells), single experiment): 759 nM
- IC50 ([24]; read-out: IC50,u, IL-6, pSTAT1, CD3+ cells): 270 nM
- IC50 ([25]; read-out: IC50, IL-7, pSTAT5): 3620 nM
- IC50 ([25]; read-out: IC50,u, IL-7, pSTAT5): 1460 nM
- IC50 ([26]; read-out: IC50, IL-13, pSTAT6, CD19+ cells): 2120 nM
- IC50 ([26]; read-out: IC50,u, IL-13, pSTAT6, CD19+ cells): 853 nM
